Experimental data: ChEMBL document CHEMBL1201862, “PubChem BioAssay data set” (2004)
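1) Cells in 96-well plates. 2) Compound, 48 h, 5 concentrations. 3) Linear interpolation between surrounding doses. 4) Unreached endpoint = highest concentration. Abbreviation: GI50, concentration required for 50% inhibition of growth.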 Active and inactive are the calls of the source. Rule as the data show it: active = GI50 up to about 1.1 µM and inactive = higher.

How the values were obtained:
Test in all cases: growth of human tumour cells (NCI), 48 h
[1] = test system: SF-539
[2] = test system: LOX IMVI
[3] = test system: NCI-H460
[4] = test system: COLO 205
[5] = test system: M19-MEL
[6] = test system: Malme-3M
[7] = test system: SNB-75
[8] = test system: RPMI-8226
[9] = test system: CCRF-CEM
[10] = test system: KM12
[11] = test system: HOP-62
[12] = test system: IGROV-1
[13] = test system: MOLT-4
[14] = test system: EKVX
[15] = test system: HL-60
[16] = test system: NCI-H226
[17] = test system: PC-3
[18] = test system: MCF7
[19] = test system: MDA-MB-435
[20] = test system: T47D

Measured: GI50

CCc1cccc(C(C)C)c1N1C(=O)C(=O)C(c2nc3ccccc3s2)C(=O)C1=O
inactive: [1] > 50 µM | [2] > 46.2 µM | [3] > 50 µM | [4] 16.8 µM | [5] 39.1 µM | [6] > 26.2 µM | [7] > 50 µM | [8] 18.3 µM | [9] 11.3 µM | [10] > 44.7 µM | [11] > 50 µM | [12] > 50 µM | [13] 12.6 µM | [14] > 50 µM | [15] 12.3 µM

Cc1ccc(NC(=O)CSc2nnc(Cc3ccccc3)o2)c(C)c1
inactive: [2] > 100 µM | [3] > 100 µM | [4] > 100 µM | [5] > 100 µM | [6] > 100 µM | [7] > 100 µM | [8] > 100 µM | [16] > 100 µM | [9] > 100 µM | [10] > 100 µM | [11] > 100 µM | [13] > 100 µM | [14] > 100 µM | [15] > 100 µM

O=C(/C=C/c1ccc(O)cc1)c1cc(Cl)ccc1O
inactive: [1] 18.8 µM | [2] 18.7 µM | [3] 50.2 µM | [4] > 100 µM | [5] 72.1 µM | [6] 47.2 µM | [7] 46.5 µM | [16] 95.9 µM | [9] 6.32 µM | [10] > 100 µM | [11] > 100 µM | [12] 57.4 µM | [13] 16.6 µM | [14] 86.3 µM | [15] 17.8 µM

COC(=O)C(Cc1cc(OC)c(OC)c(OC)c1)C(=O)OC
inactive: [2] > 320 µM | [3] > 320 µM | [4] > 320 µM | [5] > 320 µM | [6] > 320 µM | [8] > 320 µM | [9] > 320 µM | [10] > 320 µM | [11] > 320 µM | [12] > 320 µM | [13] > 320 µM | [14] > 320 µM | [15] > 320 µM

O=C(Cc1nc2ccc([N+](=O)[O-])cc2nc1O)C(=O)Nc1ccccc1[N+](=O)[O-]
inactive: [1] > 100 µM | [2] 60.7 µM | [3] > 100 µM | [4] > 100 µM | [5] > 100 µM | [6] > 100 µM | [7] > 100 µM | [16] > 100 µM | [9] > 100 µM | [10] 86.3 µM | [12] > 100 µM | [13] > 100 µM | [14] > 100 µM | [15] > 100 µM

CO/N=C(/C(=O)OC)c1ccccc1COc1cccc(C(F)(F)F)c1
inactive: [1] 54.1 µM | [2] 22.9 µM | [3] 28.8 µM | [4] 41.8 µM | [17] 22 µM | [6] 2.3 µM | [7] 31.7 µM | [8] 6.18 µM | [16] 29.4 µM | [9] 16 µM | [18] 25.3 µM | [10] 18.8 µM | [11] 21.2 µM | [12] 30.2 µM | [13] 10.6 µM | [14] 7.62 µM | [19] 29.3 µM | [20] 9.55 µM | [15] 9.68 µM

CCOC(=O)C(Cc1ccc(OC(=O)c2ccc(OC)cc2OC)cc1)NC(=O)C(F)(F)F (stereo not given)
inactive: [1] 23.2 µM | [2] 18.6 µM | [3] 34.8 µM | [4] 18.7 µM | [17] 21.8 µM | [6] 21.3 µM | [7] 16.4 µM | [8] 20.3 µM | [16] 65.2 µM | [9] 19.2 µM | [18] 19.7 µM | [10] 29.4 µM | [11] 21.3 µM | [12] 19.2 µM | [13] 16.8 µM | [14] 21.4 µM | [19] 18.7 µM | [20] 23.8 µM | [15] 21.9 µM

COC(=O)c1cc(Cl)ccc1NC(=O)c1ccc([N+](=O)[O-])cc1
inactive: [1] 20.4 µM | [3] 42.3 µM | [5] 40.7 µM | [6] 23 µM | [7] 6.73 µM | [8] 20.2 µM | [16] 20.3 µM | [9] 22.8 µM | [10] 19.8 µM | [11] 15.2 µM | [12] 19.8 µM | [13] 35.6 µM | [14] 31.8 µM | [15] 27.4 µM

c1ccc2c(c1)nnn1c3cnccc3nc21
inactive: [1] 35.4 µM | [2] 39.1 µM | [3] 16 µM | [4] 20.7 µM | [5] 65.9 µM | [6] > 100 µM | [7] 25.4 µM | [8] 18.5 µM | [9] 9.53 µM | [10] 23.9 µM | [11] 40.2 µM | [12] 36.4 µM | [13] 15.7 µM | [14] 51.6 µM | [15] 8.87 µM

O=C(N/C(=C\c1ccc(/C=C(\NC(=O)c2ccccc2)c2nc3cc([N+](=O)[O-])ccc3[nH]2)cc1)c1nc2cc([N+](=O)[O-])ccc2[nH]1)c1ccccc1
inactive: [1] 80.4 µM | [2] 28.8 µM | [4] 29.8 µM | [5] 52.4 µM | [6] > 100 µM | [7] 68.5 µM | [8] 12 µM | [9] 20.8 µM | [11] > 100 µM | [12] 82.8 µM | [13] 11 µM | [14] 32.9 µM

CC1OC(OC2C(OC(=O)[C@]34CCC(C)(C)C[C@H]3C3=CC[C@@H]5[C@@]6(C)CC[C@H](OC7OC(CO)C(O)C(O)C7OC7OC(CO)C(O)C(O)C7O)C(C)(C)[C@@H]6CC[C@@]5(C)[C@]3(C)CC4)OCC(O)C2O)C(O)C(O)C1OC1OCC(O)C(O)C1O (stereo not given in full)
inactive: [1] 45.8 µM | [2] 18.2 µM | [3] 24.4 µM | [4] 1.71 µM | [17] 12.4 µM | [6] 3.82 µM | [7] 16.7 µM | [8] 12.9 µM | [16] 10.8 µM | [9] 18.5 µM | [18] 12.6 µM | [10] 7.73 µM | [11] 15.3 µM | [12] 16 µM | [13] 16.4 µM | [14] 5 µM | [19] 2.79 µM | [20] 15.4 µM | [15] 6.11 µM

Cc1c(C(=O)/C=C/c2ccccc2[N+](=O)[O-])[n+]([O-])c2ccccc2[n+]1[O-]
inactive: [1] 3.78 µM | [3] 4.32 µM | [4] 3.13 µM | [5] 5.97 µM | [6] 13.3 µM | [7] 13.2 µM | [8] 2.96 µM | [16] 11.4 µM | [10] 10.3 µM | [11] 18.2 µM | [12] 10.6 µM | [13] 5.5 µM | [14] 14.4 µM | [15] 1.58 µM

COc1cccc(/C=C2\SC(=S)N(/C=C3\C(=O)Oc4ccccc4C3=O)C2=O)c1O
inactive: [1] 24.9 µM | [2] 63.2 µM | [3] 48.1 µM | [4] 85.7 µM | [17] 51.8 µM | [6] > 100 µM | [7] 19.8 µM | [8] 18.8 µM | [16] > 100 µM | [9] 38.7 µM | [18] 39.4 µM | [10] 45.8 µM | [11] 50.7 µM | [12] 59.2 µM | [13] 39.1 µM | [14] > 100 µM | [19] 24.7 µM | [20] 48.6 µM | [15] 41.2 µM

O=C(O)CCNc1ccccc1C(=O)O
inactive: [1] > 100 µM | [2] > 100 µM | [3] > 100 µM | [4] > 100 µM | [17] > 100 µM | [6] > 100 µM | [7] > 100 µM | [8] > 100 µM | [16] > 100 µM | [9] > 100 µM | [18] > 100 µM | [10] > 100 µM | [11] > 100 µM | [12] > 100 µM | [13] > 100 µM | [14] 99.1 µM | [19] > 100 µM | [20] > 100 µM | [15] > 100 µM

COc1cccc(NC(=O)/C(CC(=O)CC(c2ccccc2)c2c(O)c3ccccc3oc2=O)=N\NC(C)(C)C)c1OC (stereo not given)
inactive: [1] 34.5 µM | [2] 36.9 µM | [3] > 100 µM | [4] > 100 µM | [5] > 100 µM | [6] > 100 µM | [7] 27.7 µM | [8] 29.3 µM | [9] 25.7 µM | [10] 34 µM | [11] 86.1 µM | [12] 64.3 µM | [13] 28.7 µM | [14] 43.4 µM | [15] 22.5 µM

O=C(C#Cc1ccccc1)NC/C=C/c1ccccc1
inactive: [1] 33.3 µM | [2] 38.5 µM | [3] 47.9 µM | [4] 83.4 µM | [5] 60.1 µM | [6] 49.8 µM | [7] 17.8 µM | [16] 31.6 µM | [9] 36.8 µM | [10] 46.7 µM | [11] 22.8 µM | [12] 55.8 µM | [13] 33.6 µM | [14] > 100 µM | [15] 24.1 µM

CCOC(=O)C(C(=O)OCC)=C1NC2(c3ccccc3Nc3ccc(C)cc32)C(C(=O)OC)S1 (stereo not given)
inactive: [1] 42.2 µM | [2] 33.5 µM | [3] 12.1 µM | [4] 11.6 µM | [17] 6.85 µM | [6] 22.5 µM | [7] 14.9 µM | [8] 8.93 µM | [16] 29.9 µM | [9] 15.1 µM | [18] 14.8 µM | [10] 14.2 µM | [11] 80 µM | [12] 18.4 µM | [13] 5.58 µM | [14] 8.36 µM | [19] 30.5 µM | [20] 3.96 µM | [15] 20 µM
